{"source": "ChEMBL document CHEMBL1127053", "about": "“3,4-Dimethyl-4-(3-hydroxyphenyl)piperidines: opioid antagonists with potent anorectant activity” (J Med Chem, 1993)", "biological_target": "D(1A) dopamine receptor (Rattus norvegicus, UniProt P18901)", "sequence (P18901 whole entry)": "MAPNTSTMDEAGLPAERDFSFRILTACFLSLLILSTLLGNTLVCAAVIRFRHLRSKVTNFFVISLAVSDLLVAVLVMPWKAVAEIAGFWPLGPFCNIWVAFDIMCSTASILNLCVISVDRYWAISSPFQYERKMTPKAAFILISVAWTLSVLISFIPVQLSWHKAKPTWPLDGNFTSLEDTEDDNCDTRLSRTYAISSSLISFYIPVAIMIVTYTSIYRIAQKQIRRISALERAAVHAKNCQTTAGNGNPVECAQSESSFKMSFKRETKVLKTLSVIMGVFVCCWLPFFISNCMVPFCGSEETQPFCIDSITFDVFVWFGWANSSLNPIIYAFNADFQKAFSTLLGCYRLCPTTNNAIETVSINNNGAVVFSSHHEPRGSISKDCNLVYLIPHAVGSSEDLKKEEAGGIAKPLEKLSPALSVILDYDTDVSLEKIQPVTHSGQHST", "experiment": "Tested for affinity against dopamine D1 receptor using [3H]SCH-23,390 in rat brain", "type": "tissue-based", "data": [{"smiles": "C[C@H]1CN(CC[C@H](O)C2CCCCC2)CC[C@@]1(C)c1cccc(O)c1", "values": [{"measurement": "IC50", "result": "> 1", "unit": "µM"}]}]}
